Data: ChEMBL document CHEMBL3217649, “Synthesis of new N-substituted aminoquercitols from naturally available (+)-proto-quercitol and their -glucosidase inhibitory activity” (Medchemcomm, 2012)
The source made the active and inactive calls. No cut-off for these calls is given here.

What was measured:
[1] = Inhibition of baker's yeast type 1 alpha-glucosidase using p-nitrophenyl-alpha-D-glucopyranoside as substrate incubated for 10 mins prior to substrate challenge for 20 mins by microplate reader analysis; set-up: species or system Saccharomyces cerevisiae
[2] = Inhibition of type 2 alpha-glucosidase in rat small intestine using maltose as substrate after 10 mins by microplate reader analysis
[3] = target: Sucrase-isomaltase, intestinal (Rattus norvegicus, UniProt P23739); assay: Inhibition of sucrase in rat small intestine using sucrose as substrate after 40 mins by microplate reader analysis
[4] = test system: Saccharomyces cerevisiae; assay: Inhibition of baker's yeast type 1 alpha-glucosidase using p-nitrophenyl-alpha-D-glucopyranoside as substrate at 10 mg/ml incubated for 10 mins prior to substrate challenge for 20 mins by microplate reader analysis
[5] = target: Sucrase-isomaltase, intestinal (Rattus norvegicus) (UniProt P23739); assay: Inhibition of sucrase in rat small intestine using sucrose as substrate at 1 mg/ml after 40 mins by microplate reader analysis
[6] = species: Rattus norvegicus; assay: Ratio of acarbose IC50 to compound IC50 for type 2 alpha-glucosidase in rat small intestine
[7] = species: Rattus norvegicus; assay: Competitive inhibition of maltase in rat small intestine using maltose as substrate by Lineweaver-Burk plot analysis
[8] = Inhibition of maltase in rat small intestine using maltose as substrate by Lineweaver-Burk plot based secondary replot analysis; type: tissue-based
[9] = test system: Saccharomyces cerevisiae; assay: Ratio of acarbose IC50 to compound IC50 for baker's yeast type 1 alpha-glucosidase
[10] = species: Rattus norvegicus; assay: Inhibition of type 2 alpha-glucosidase in rat small intestine using maltose as substrate at 1 mg/ml after 10 mins by microplate reader analysis

Sucrase-isomaltase, intestinal (Rattus norvegicus), sequence (P23739 1-1013 limits assumed): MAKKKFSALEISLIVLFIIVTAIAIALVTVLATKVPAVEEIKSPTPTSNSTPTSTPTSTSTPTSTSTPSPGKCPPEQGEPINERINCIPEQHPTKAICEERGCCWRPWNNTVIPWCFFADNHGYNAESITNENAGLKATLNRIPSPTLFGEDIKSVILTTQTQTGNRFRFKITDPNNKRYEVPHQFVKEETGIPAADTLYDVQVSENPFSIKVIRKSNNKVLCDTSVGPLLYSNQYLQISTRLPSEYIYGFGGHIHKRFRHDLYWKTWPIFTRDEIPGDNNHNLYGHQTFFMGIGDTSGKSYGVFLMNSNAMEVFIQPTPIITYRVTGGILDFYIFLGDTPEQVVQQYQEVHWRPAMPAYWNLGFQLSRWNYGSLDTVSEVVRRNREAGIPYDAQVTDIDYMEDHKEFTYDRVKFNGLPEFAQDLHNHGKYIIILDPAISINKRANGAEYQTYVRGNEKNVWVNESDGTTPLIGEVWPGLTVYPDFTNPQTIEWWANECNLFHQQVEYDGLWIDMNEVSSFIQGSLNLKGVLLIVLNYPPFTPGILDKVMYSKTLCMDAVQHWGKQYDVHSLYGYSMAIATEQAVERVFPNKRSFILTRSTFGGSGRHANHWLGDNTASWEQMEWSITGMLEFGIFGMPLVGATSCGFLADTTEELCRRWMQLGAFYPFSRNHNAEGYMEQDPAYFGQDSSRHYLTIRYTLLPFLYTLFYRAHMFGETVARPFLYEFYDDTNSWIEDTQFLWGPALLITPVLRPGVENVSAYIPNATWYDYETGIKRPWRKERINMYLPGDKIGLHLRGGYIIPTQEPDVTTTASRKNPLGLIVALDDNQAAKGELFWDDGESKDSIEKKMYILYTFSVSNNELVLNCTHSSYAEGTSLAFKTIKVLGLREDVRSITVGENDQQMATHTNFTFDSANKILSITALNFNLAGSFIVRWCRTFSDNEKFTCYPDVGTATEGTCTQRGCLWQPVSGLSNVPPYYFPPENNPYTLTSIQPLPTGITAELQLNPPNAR
Sucrase-isomaltase, intestinal (Rattus norvegicus), sequence (P23739 1014-1841 limits assumed): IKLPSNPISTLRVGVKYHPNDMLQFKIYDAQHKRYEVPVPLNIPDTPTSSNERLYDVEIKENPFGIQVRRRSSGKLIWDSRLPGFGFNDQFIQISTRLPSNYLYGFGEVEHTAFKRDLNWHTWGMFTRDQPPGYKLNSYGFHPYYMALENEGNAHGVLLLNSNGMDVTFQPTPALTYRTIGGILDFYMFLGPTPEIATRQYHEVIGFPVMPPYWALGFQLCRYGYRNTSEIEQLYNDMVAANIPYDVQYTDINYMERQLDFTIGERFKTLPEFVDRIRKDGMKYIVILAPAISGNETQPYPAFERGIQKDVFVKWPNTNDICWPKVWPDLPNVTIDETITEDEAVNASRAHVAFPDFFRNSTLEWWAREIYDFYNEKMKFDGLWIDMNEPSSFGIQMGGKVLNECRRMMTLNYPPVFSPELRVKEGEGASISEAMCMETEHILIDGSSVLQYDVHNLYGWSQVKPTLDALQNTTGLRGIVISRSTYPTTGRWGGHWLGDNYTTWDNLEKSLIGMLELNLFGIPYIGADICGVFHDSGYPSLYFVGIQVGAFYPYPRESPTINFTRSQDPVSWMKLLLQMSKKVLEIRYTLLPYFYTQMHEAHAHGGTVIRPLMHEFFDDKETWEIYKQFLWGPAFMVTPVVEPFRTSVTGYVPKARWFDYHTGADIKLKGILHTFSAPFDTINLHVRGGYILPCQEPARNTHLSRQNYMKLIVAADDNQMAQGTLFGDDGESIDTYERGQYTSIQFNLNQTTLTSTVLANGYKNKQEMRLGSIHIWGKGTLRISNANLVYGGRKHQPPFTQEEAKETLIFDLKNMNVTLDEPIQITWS
Sucrase-isomaltase, intestinal, sequence (P23739 1-1013 limits assumed): as the sequence (P23739 1-1013 limits assumed) above
Sucrase-isomaltase, intestinal, sequence (P23739 1014-1841 limits assumed): as the sequence (P23739 1014-1841 limits assumed) above

| SMILES | IC50 [1] | IC50 [2] | inhibition [4] | inhibition [5] | further results |
| --- | --- | --- | --- | --- | --- |
| CCCCN(CCCC)[C@H]1C[C@@H](O)[C@H](O)[C@@H](O)[C@H]1O | 2300 µM | 24 µM | – | – | IC50 [3]: 36 µM |
| CCCCCC(=O)N[C@H]1C[C@@H](O)[C@H](O)[C@@H](O)[C@H]1O | – | 4.2 µM | < 30% | < 30% | – |
| CCCCCCN[C@H]1C[C@@H](O)[C@H](O)[C@@H](O)[C@H]1O | – | 2.5 µM | < 30% | < 30% | – |
| CCCCN[C@H]1C[C@@H](O)[C@H](O)[C@@H](O)[C@H]1O | – | 290 µM | < 30% | < 30% | – |
| CCCCCCCCCC(=O)N[C@@H]1C[C@@H](O)[C@H](O)[C@@H](O)[C@H]1O | – | 3.5 µM | < 30% | < 30% | – |
| CCCCCCCCCCN[C@@H]1C[C@@H](O)[C@H](O)[C@@H](O)[C@H]1O | – | 0.41 µM | < 30% | < 30% | Ratio IC50 [6]: 3 |
| CCCCN[C@@H]1C[C@@H](O)[C@H](O)[C@@H](O)[C@H]1O | 1200 µM | 57 µM | – | < 30% | – |
| CCCCCCCCCC(=O)N[C@H]1C[C@@H](O)[C@H](O)[C@@H](O)[C@H]1O | – | 2 µM | < 30% | < 30% | competitive inhibition (Lineweaver-Burk) [7]: Active; Ki [8]: 1.5 µM |
| CC(=O)N[C@@H]1C[C@@H](O)[C@H](O)[C@@H](O)[C@H]1O | 150 µM | 5.3 µM | – | – | IC50 [3]: 5.3 µM; Ratio IC50 [9]: 3 |
| CC(=O)N[C@H]1C[C@@H](O)[C@H](O)[C@@H](O)[C@H]1O | 270 µM | 180 µM | – | < 30% | – |
| CCCCCC(=O)N[C@@H]1C[C@@H](O)[C@H](O)[C@@H](O)[C@H]1O | 1700 µM | 3.8 µM | – | – | IC50 [3]: 6.1 µM |
| CCCCCCCCCCCCN[C@@H]1C[C@@H](O)[C@H](O)[C@@H](O)[C@H]1O | – | 1.5 µM | < 30% | < 30% | – |
| CCN(CC)[C@H]1C[C@@H](O)[C@H](O)[C@@H](O)[C@H]1O | 1600 µM | 21 µM | – | – | IC50 [3]: 360 µM |
| CCN[C@H]1C[C@@H](O)[C@H](O)[C@@H](O)[C@H]1O | – | – | < 30% | < 30% | inhibition [10]: 30% |
| CCCCN(CCCC)[C@@H]1C[C@@H](O)[C@H](O)[C@@H](O)[C@H]1O | 1800 µM | 7.6 µM | – | < 30% | – |
| CCCCCCCCCCN[C@H]1C[C@@H](O)[C@H](O)[C@@H](O)[C@H]1O | – | 2 µM | < 30% | – | IC50 [3]: 410 µM |
| CCCCCCN(CCCCCC)[C@H]1C[C@@H](O)[C@H](O)[C@@H](O)[C@H]1O | – | 32 µM | < 30% | – | IC50 [3]: 120 µM |
| CCN(CC)[C@@H]1C[C@@H](O)[C@H](O)[C@@H](O)[C@H]1O | 1600 µM | 5 µM | – | < 30% | competitive inhibition (Lineweaver-Burk) [7]: Active; Ki [8]: 3.5 µM |
| CCCCCCCCCCCC(=O)N[C@H]1C[C@@H](O)[C@H](O)[C@@H](O)[C@H]1O | – | 10 µM | < 30% | < 30% | – |
| CCCCCCCCCCCC(=O)N[C@@H]1C[C@@H](O)[C@H](O)[C@@H](O)[C@H]1O | – | 7.4 µM | < 30% | < 30% | – |
| C[C@H]1O[C@H](O[C@H]2[C@H](O)[C@@H](O)[C@@H](O[C@H]3[C@H](O)[C@@H](O)C(O)O[C@@H]3CO)O[C@@H]2CO)[C@H](O)[C@@H](O)[C@@H]1N[C@H]1C=C(CO)[C@@H](O)[C@H](O)[C@H]1O (stereo partly drawn) [ACARBOSE] | 480 µM | 1.5 µM | – | – | competitive inhibition (Lineweaver-Burk) [7]: Active; Ki [8]: 0.99 µM |
| CCCCCCN(CCCCCC)[C@@H]1C[C@@H](O)[C@H](O)[C@@H](O)[C@H]1O | – | 48 µM | < 30% | < 30% | – |
| CCCCCCN[C@@H]1C[C@@H](O)[C@H](O)[C@@H](O)[C@H]1O | 400 µM | 0.24 µM | – | < 30% | Ratio IC50 [6]: 3; competitive inhibition (Lineweaver-Burk) [7]: Active; Ki [8]: 0.73 µM |
| CCCCCCCCCCCCN[C@H]1C[C@@H](O)[C@H](O)[C@@H](O)[C@H]1O | – | 1.9 µM | < 30% | < 30% | – |
| CCCC(=O)N[C@H]1C[C@@H](O)[C@H](O)[C@@H](O)[C@H]1O | – | 38 µM | < 30% | < 30% | – |
| CCCC(=O)N[C@@H]1C[C@@H](O)[C@H](O)[C@@H](O)[C@H]1O | 1200 µM | 19 µM | – | – | IC50 [3]: 4.7 µM |
